Results: PubChem BioAssay AID1963440 (Molecular Pharmacology Branch, DTP, NCI, 2024)
pIC50: −log10 of the molar value.

Tested on: NCI-H1417 complex spheroids, growth % test/control
Assay: Anticancer human tumor NCI-H1417 cell line growth inhibition [Asc];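 further: spheroids exposed to compounds for 7 days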;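 on viability, T/C: 100% = DMSO vehicle control wells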
Details: for pIC50: curve of first compound; for viability, T/C: stronger effect = lower value
In short: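 Concentration series start at each agent's clinical Cmax, or at 10 microM when none is established, and drop in half-log steps; agents are applied alone or together to complex spheroids built with HUVEC and hMSC.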

[1] = second compound 0.1 µM, first compound 0.0316 µM
[2] = second compound 0.1 µM, first compound 0.1 µM
[3] = second compound 0.1 µM, first compound 0.316 µM
[4] = second compound 0.1 µM, first compound 1 µM
[5] = second compound 0.316 µM, first compound 0.0316 µM
[6] = second compound 0.316 µM, first compound 0.1 µM
[7] = second compound 0.316 µM, first compound 0.316 µM
[8] = second compound 0.316 µM, first compound 1 µM
[9] = second compound 1 µM, first compound 0.0316 µM
[10] = second compound 1 µM, first compound 0.1 µM
[11] = second compound 1 µM, first compound 0.316 µM
[12] = second compound 1 µM, first compound 1 µM

With O=C(c1ccc(F)c(F)c1Nc1ccc(I)cc1F)N1CC(O)([C@@H]2CCCCN2)C1 + Cc1c(S(C)(=O)=O)c(-c2cc(F)cc(N3CCN(c4ccc(NS(=O)(=O)c5ccc(NC(CCN6CCC(C(=O)OCCCP(=O)(O)O)CC6)CSc6ccccc6)c(S(=O)(=O)C(F)(F)F)c5)cc4)CC3)c2)c(-c2ccc(Cl)cc2)n1C(C)C the pIC50 (second compound 0.1 µM) was less than 6.00, the pIC50 (second compound 0.316 µM) was greater than 8.50 and the pIC50 (second compound 1 µM) was greater than 8.50. For the same compound, the pIC50 (second compound 3.16 µM) was greater than 8.50, the pIC50 (second compound 10 µM) was greater than 8.50 and the viability, T/C (second compound 0.1 µM, first compound 0.00316 µM) was 84.2%. It also gave a viability, T/C (second compound 0.1 µM, first compound 0.01 µM) of 81.2%, a viability, T/C [1] of 80.8% and a viability, T/C [2] of 83.7%. The viability, T/C [3] was 71.5%, the viability, T/C [4] was 59.1% and the viability, T/C (second compound 0.316 µM, first compound 0.00316 µM) was 46.5%. For the same compound, the viability, T/C (second compound 0.316 µM, first compound 0.01 µM) was 50.1%, the viability, T/C [5] was 44.7% and the viability, T/C [6] was 37.9%. For the same compound, the viability, T/C [7] was 28.8%, the viability, T/C [8] was 33.4% and the viability, T/C (second compound 1 µM, first compound 0.00316 µM) was 13.9%. For the same compound, the viability, T/C (second compound 1 µM, first compound 0.01 µM) was 11.9%, the viability, T/C [9] was 10.4% and the viability, T/C [10] was 5.1%. The viability, T/C [11] was 2.22%, the viability, T/C [12] was 2.04% and the viability, T/C (second compound 3.16 µM, first compound 0.00316 µM) was 2.87%. It also gave a viability, T/C (second compound 3.16 µM, first compound 0.01 µM) of 2.41%, a viability, T/C (second compound 3.16 µM, first compound 0.0316 µM) of 2.22% and a viability, T/C (second compound 3.16 µM, first compound 0.1 µM) of 0.97%. It also gave a viability, T/C (second compound 3.16 µM, first compound 0.316 µM) of 0.48%, a viability, T/C (second compound 3.16 µM, first compound 1 µM) of 0.27% and a viability, T/C (second compound 10 µM, first compound 0.00316 µM) of 2.15%. For the same compound, the viability, T/C (second compound 10 µM, first compound 0.01 µM) was 1.85%, the viability, T/C (second compound 10 µM, first compound 0.0316 µM) was 1.55% and the viability, T/C (second compound 10 µM, first compound 0.1 µM) was 0.9%. It also gave a viability, T/C (second compound 10 µM, first compound 0.316 µM) of 1.3% and a viability, T/C (second compound 10 µM, first compound 1 µM) of 0.32%.
C#Cc1c(F)ccc2cc(O)cc(-c3ncc4c(N5CC6CCC(C5)N6)nc(OCC56CCCN5CC(F)C6)nc4c3F)c12 (configuration not stated) + CNC(C)C(=O)NC1CN(S(=O)(=O)c2cccc(S(=O)(=O)N3CCC4CCC(C(=O)NC(c5ccccc5)c5ccccc5)N4C(=O)C(NC(=O)C(C)NC)C3)c2)CCC2CCC(C(=O)NC(c3ccccc3)c3ccccc3)N2C1=O gave a pIC50 (second compound 0.00316 µM) of less than 5.00, a pIC50 (second compound 0.01 µM) of less than 5.00 and a pIC50 (second compound 0.0316 µM) of less than 5.00. For the same compound, the pIC50 (second compound 0.1 µM) was less than 5.00, the pIC50 (second compound 0.316 µM) was less than 5.00 and the pIC50 (second compound 1 µM) was less than 5.00. For the same compound, the viability, T/C (second compound 0.00316 µM, first compound 0.0316 µM) was 96.1%, the viability, T/C (second compound 0.00316 µM, first compound 0.1 µM) was 87.6% and the viability, T/C (second compound 0.00316 µM, first compound 0.316 µM) was 99.3%. It also gave a viability, T/C (second compound 0.00316 µM, first compound 1 µM) of 95.7%, a viability, T/C (second compound 0.00316 µM, first compound 3.16 µM) of 81.7% and a viability, T/C (second compound 0.00316 µM, first compound 10 µM) of 65%. For the same compound, the viability, T/C (second compound 0.01 µM, first compound 0.0316 µM) was 98%, the viability, T/C (second compound 0.01 µM, first compound 0.1 µM) was 90% and the viability, T/C (second compound 0.01 µM, first compound 0.316 µM) was 82.2%. It also gave a viability, T/C (second compound 0.01 µM, first compound 1 µM) of 98.1%, a viability, T/C (second compound 0.01 µM, first compound 3.16 µM) of 93.2% and a viability, T/C (second compound 0.01 µM, first compound 10 µM) of 66.4%. The viability, T/C (second compound 0.0316 µM, first compound 0.0316 µM) was 101%, the viability, T/C (second compound 0.0316 µM, first compound 0.1 µM) was 90.6% and the viability, T/C (second compound 0.0316 µM, first compound 0.316 µM) was 91.1%. It also gave a viability, T/C (second compound 0.0316 µM, first compound 1 µM) of 98.2%, a viability, T/C (second compound 0.0316 µM, first compound 3.16 µM) of 88.9% and a viability, T/C (second compound 0.0316 µM, first compound 10 µM) of 69.3%. The viability, T/C [1] was 89.5%, the viability, T/C [2] was 91.5% and the viability, T/C [3] was 86%. For the same compound, the viability, T/C [4] was 97.6%, the viability, T/C (second compound 0.1 µM, first compound 3.16 µM) was 91.2% and the viability, T/C (second compound 0.1 µM, first compound 10 µM) was 69.8%. The viability, T/C [5] was 82.3%, the viability, T/C [6] was 80.9% and the viability, T/C [7] was 87.1%. For the same compound, the viability, T/C [8] was 86.7%, the viability, T/C (second compound 0.316 µM, first compound 3.16 µM) was 91.2% and the viability, T/C (second compound 0.316 µM, first compound 10 µM) was 64.6%. The viability, T/C [9] was 97.5%, the viability, T/C [10] was 80.9% and the viability, T/C [11] was 89.6%. For the same compound, the viability, T/C [12] was 84.3%, the viability, T/C (second compound 1 µM, first compound 3.16 µM) was 86.7% and the viability, T/C (second compound 1 µM, first compound 10 µM) was 66.8%.
